From patent publication US20130029937A1, “TREATMENT OF SURFACTANTS” (SOLAEROMED INC., priority 2007, published 2013)

Assays:
[1] = CBS dynamic cycling of BLES with added (oxidized) phospholipids; assay type: physicochemical, bovine; conditions: non-oxidized lipid in BLES containing cholesterol, exposure to ambient air
Source text: In this Example, the role of oxidized polyunsaturated phospholipids in causing cholesterol-dependent surfactant dysfunction was studied. Oxidation of surfactant by the Fenton-like reaction or in the presence of ROS in the inflamed lung results in the formation of lipid-peroxides with polyunsaturated phospholipids the principal target. […] This introduction of a hydrophilic group in the formerly hydrophobic region will disrupt lipid packing. […] This is consistent with peroxidized PLPC, CL and other polyunsaturated phospholipids present in surfactant causing dysfunction together with cholesterol. […]
To ensure accurate mixing, additional lipids were added to lipid extracts of BLES or oxBLES as organic solutions. […] Phospholipid concentration was assessed using a phosphate assay (Gentaur Molecular Products, Kampenhout, Belgium) after liberation of free phosphate (Duck-Chong C G (1979) A rapid sensitive method for determining phospholipid phosphorus involving digestion with magnesium nitrate. Lipids 14: 492-497). […] BLES contained 2.60% cholesterol (w/w phospholipids) as determined using an enzymatic assay for cholesterol (Amplex Red Cholesterol Assay, Invitrogen, Eugene, Oreg., USA). hSP-A was added to dried films when indicated to a final concentration of 5% (w/w phospholipids). […]

[2] = captive bubble surfactometer (CBS), oxidized BLES with added cholesterol; assay type: physicochemical, cattle; conditions: MβCD (20 mmol) in the aqueous phase
Protocol: In a model study, 0, 5 and 10 weight percent cholesterol was added to a ROS-exposed cattle lipid surfactant extract as an example of how even a normal (physiological) amount of cholesterol renders surfactant exposed to ROS and its derivatives dysfunctional; the function of the surfactant model was determined in a captive bubble surfactometer (CBS).
Surface activity of surfactant was determined with a computer-controlled captive bubble surfactometer (CBS) as described in detail by Gunasekara et al. (Gunasekara L, Schoel W M, Schürch S & Amrein M W (2008) A comparative study of mechanisms of surfactant inhibition. BBA—Biomembranes 1778: 433-444), with two important changes: 1) A transparent capillary was used to deposit a ˜1.0 μL bolus of 27 mg/mL surfactant near the air-buffer interface. The quantity and concentration of surfactant were chosen to minimize effects caused by insufficient surfactant or bulk phase adsorption. This amount of native BLES reliably reproduces minimum and maximum surface tensions as measured in situ at functional reserve capacity and total lung capacity (<1 mN/m and ˜30 mN/m, respectively) (Bachofen H & Schtirch S (2001) Alveolar surface forces and lung architecture. Comparative Biochemistry and Physiology—Part A: Molecular & Integrative Physiology 129: 183-193). […]

[3] = murine model of acute lung injury (acid injury), MβCD aerosol, surfactant function; assay type: in vivo, mice
Source text: In this study, a murine model of acute lung injury (ALI), the earliest phase of ARDS, was created by acid injury of the lung according to published procedures (Allen, G. B. et al. Neither fibrin nor plasminogen activator inhibitor-1 deficiency protects lung function in a mouse model of acute lung injury. American Journal of Physiology-Lung Cellular and Molecular Physiology 296, L277-L285 (2009)) and analyzed with respect to lung mechanics, oxygenation, lung histology, lung ultrastructure, surfactant function and composition (FIGS. 3A-E). Elastance (or its inverse, compliance) and pressure-volume curves are commonly used to assess lung function in ALI/ARDS (JONSON, B. et al. Pressure-volume curves and compliance in acute lung injury. American journal of respiratory and critical care medicine 159, 1172-1178 (1999)).

surface tension [2]	Compound	surfactant function over time [1]	surfactant function in vivo ([3]; in the lung, given as an aerosol)	minimum surface tension of surfactant ([3]; injured mice treated with an MβCD-aerosol) [mN/m]
–	CCCCC/C=C\C/C=C\CCCCCCCC(=O)OC[C@H](COP(=O)(O)OCC(O)COP(=O)(O)OC[C@H](COC(=O)CCCCCCC/C=C\C/C=C\CCCCC)OC(=O)CCCCCCC/C=C\C/C=C\CCCCC)OC(=O)CCCCCCC/C=C\C/C=C\CCCCC (some centres unmarked) [CL, 1′,3′-Bis[1,2-dilinoleoyl-sn-glycero-3-phospho]-sn-glycerol]	became dysfunctional after several hours	–	–
–	CCCCC/C=C\C/C=C\CCCCCCCC(=O)O[C@H](COC(=O)CCCCCCCCCCCCCCC)COP(=O)([O-])OCC[N+](C)(C)C [PLPC, 1-palmitoyl-2-linoleoyl-sn-glycero-3-phosphocholine]	became dysfunctional after several hours	–	–
almost zero	methyl-β-cyclodextrin [MβCD]	–	can restore surfactant function	< 10
